{"source": "patent US9492789B2", "about": "“Draw solute for forward osmosis, forward osmosis water treatment device, and forward osmosis method for water treatment” (Samsung Electronics Co., Ltd., priority 2012, dated 2016)", "key": {"[1]": {"test": "Osmotic pressure analysis of osmosis draw solution by freezing point depression", "type": "physicochemical", "conditions": "draw solution concentration 10 wt %", "description": "Osmosis draw solutions having the various concentrations shown in the following Table 1 are prepared, and the osmotic pressure of the osmosis draw solution including the NIPAam oligomer prepared from Examples 1 to 4 is analyzed using the osmotic pressure measurer according to a freezing point depression."}, "[2]": {"test": "Solubility change of 10 wt % osmosis draw solution on slow heating (LCST, separation temperature, reversibility)", "type": "physicochemical", "excerpt": "Each osmosis draw solution including the compounds of Examples 1 to 5 and Comparative Examples 1 and 2 at a concentration of 10 wt % is slowly heated from room temperature, and the solubility change of the solution is observed according to the temperature. The term “lower critical solution temperature (LCST)” indicates the temperature at which the solution begins to suddenly turn opaque, and the term “separation temperature” indicates the temperature in which the solution begins to be precipitated."}}}
{"compound": "C=CC(=O)NC(C)C", "note": "[Comparative Example 1, N-isopropylacrylamide]", "values": [{"measurement": "Osmotic pressure, Osmol concentration", "setting": "[1]", "result": 738, "unit": "mOsmol/kg"}, {"measurement": "Osmotic pressure, atm (equivalents)", "setting": "[1]", "result": 18, "unit": "atm"}, {"measurement": "LCST", "setting": "[2]; 10 wt % solution heated from room temperature, temperature at which solution begins to suddenly turn opaque", "result": "36-37 °C"}, {"measurement": "Reversibility", "setting": "[2]; @ 25° C.", "result": "◯"}]}
